Literature values, collected in US8247398B2, “Zinc complexes of natural amino acids for treating elevated copper caused toxicities” (SSV Therapeutics, Inc., priority 2007, dated 2012).

## O=S(=O)([O-])[O-].[Zn+2] [Zinc sulfate, zinc sulfate]
Wilson's disease therapy
  patient discomfort compared with zinc acetate: even more patient discomfort

## N[C@@H](Cc1c[nH]cn1)C(=O)O.[Zn] [zinc histidine]
metallothionein; oral administration, male Wistar rat livers, within 12 hours
  metallothionein production in livers: 14-39 fold over control group

## CC(=O)[O-].CC(=O)[O-].[Zn+2] [zinc acetate]
Patients receiving zinc acetate therapy
  patients encountering persistent gastric irritation, burning sensation, and nausea: About 10%
Taken on an empty stomach or in-between meals
  time before therapy is tolerable to the patient: several days or weeks

## zinc dipicolinate
metallothionein; same test as zinc histidine chelate (rats)
  metallothionein induction in the epidermis, sebaceous glands and hair follicles: substantially raised
